From patent US20250152675A1, “I-TYPE RECOMBINANT COLLAGEN WITH HIGH TRANSDERMAL ABSORBABILITY, AND USE THEREOF” (XI'AN GIANT BIOGENE TECHNOLOLGY CO., LTD, priority 2022, published 2025)
Residues, ends and D or L forms follow the SMILES beside them.

Test: Transdermal penetration through ex vivo mouse skin in a single-chamber diffusion cell, content by BCA kit
Format: in vitro ADME, Kunming mice
Conditions: collagen peptide 5 mg/ml in 0.9% NaCl, diffusion area 2.0 cm^2, 37.5° C.
Description: 1. Preparation of Mouse Skin Ex Vivo 10 Kunming mice of 20 to 22 g with half male and half […] were used in the experiment. After the mice were killed, the hairs on the abdomen were removed. Then the skin on the hair-removed area was peeled off, stripped of fat and tendons, and rinsed repeatedly with distilled water. After being washed, the mouse skins were rinsed with normal saline, then treated with 10% glycerol, and stored at −20° C. for use (use up within 7 days).
Single-chamber diffusion cell: The effective diffusion area of the diffusion cell is 2.0 cm^2, the volume of the receiving cell is 14 ml, the length of the custom-made stirrer is 1.4 cm, and the receiving solution is 0.9% NaCl solution.
The stored mouse skin was taken out, thawed, washed with normal saline, and sandwiched between the receiving chamber and the supplying chamber, with the medicated side facing the supplying chamber and the skin side facing the receiving chamber. The temperature of the water bath system was adjusted to 37.5° C., and the stirring speed was adjusted to 100 rpm/min. 0.9% NaCl solution pre-warmed at 37° C. was added to the receiving chamber and the air bubbles were exhausted, in order to reduce the interference, the inner surface of the mouse skin was firstly contacted with the receiving solution without medication and all the receiving solution was replaced. Then the 27 collagen peptides synthesized were prepared into 5 mg/ml solutions using 0.9% NaCl respectively, which were injected into the supplying chamber and firmly adhere to the mouse skin respectively. After 24 h, part of the receiving solution was absorbed with a syringe as the sample solution to determine the transdermal amount of collagen peptide.
The BCA kit method was used to determine the polypeptide content in the sample solution. […]

| 24h penetration amount [µg] | Compound |
| --- | --- |
| 2576.34 | CC(C)[C@H](NC(=O)[C@H](C)NC(=O)CNC(=O)[C@@H]1CCCN1C(=O)[C@@H]1CCCN1C(=O)CNC(=O)[C@@H]1CCCN1C(=O)[C@@H](NC(=O)CNC(=O)[C@H](CCCNC(=N)N)NC(=O)[C@H](CCC(=O)O)NC(=O)CNC(=O)[C@H](C)NC(=O)[C@H](CCCCN)NC(=O)CNC(=O)[C@@H]1CCCN1C(=O)[C@H](CCC(=O)O)NC(=O)CNC(=O)[C@H](C)NC(=O)[C@H](C)NC(=O)CNC(=O)[C@H](CCCCN)NC(=O)[C@@H]1CCCN1C(=O)CNC(=O)[C@@H]1CCCN1C(=O)[C@H](Cc1ccccc1)NC(=O)CN)C(C)C)C(=O)NCC(=O)N1CCC[C@H]1C(=O)N[C@@H](C)C(=O)NCC(=O)N[C@@H](CCCCN)C(=O)N[C@@H](CC(=O)O)C(=O)NCC(=O)N[C@@H](CCC(=O)O)C(=O)N[C@@H](C)C(=O)O [compound 11] (H-GFPGPKGAAGEPGKAGERGVPGPPGAVGPAGKDGEA-OH; N-terminus and C-terminus assumed) |
| 2309.24 | CC(C)C[C@H](NC(=O)CNC(=O)[C@H](CCCNC(=N)N)NC(=O)[C@@H](NC(=O)CNC(=O)[C@H](CC(=O)O)NC(=O)[C@H](CCCCN)NC(=O)CNC(=O)[C@@H]1CCCN1C(=O)[C@H](CO)NC(=O)CNC(=O)[C@H](CC(=O)O)NC(=O)[C@H](C)NC(=O)CNC(=O)[C@H](CCCCN)NC(=O)[C@@H]1CCCN1C(=O)CNC(=O)[C@H](C)NC(=O)[C@H](CC(=O)O)NC(=O)CNC(=O)[C@H](CCCNC(=N)N)NC(=O)[C@H](CC(=O)O)NC(=O)CNC(=O)[C@H](CCCCN)NC(=O)[C@@H]1CCCN1C(=O)CNC(=O)[C@@H]1CCCN1C(=O)[C@H](CC(C)C)NC(=O)CNC(=O)[C@H](C)NC(=O)[C@H](C)NC(=O)CNC(=O)[C@H](CCCNC(=N)N)NC(=O)[C@H](CCC(=O)O)NC(=O)CN)C(C)C)C(=O)N[C@H](C(=O)O)[C@@H](C)O [compound 18] (H-GERGAAGLPGPKGDRGDAGPKGADGSPGKDGVRGLT-OH; N-terminus and C-terminus assumed) |
| 2054.99 | CC(C)[C@H](NC(=O)CNC(=O)[C@H](CCCNC(=N)N)NC(=O)[C@H](CCC(=O)O)NC(=O)CNC(=O)[C@@H]1CCCN1C(=O)[C@H](Cc1ccccc1)NC(=O)CNC(=O)[C@H](CCCNC(=N)N)NC(=O)[C@H](CCC(=O)O)NC(=O)CNC(=O)[C@H](CCCNC(=N)N)NC(=O)[C@H](C)NC(=O)CNC(=O)[C@H](CO)NC(=O)[C@@H]1CCCN1C(=O)CNC(=O)[C@@H]1CCCN1C(=O)[C@H](C)NC(=O)CN)C(=O)N[C@@H](CCC(N)=O)C(=O)NCC(=O)N1CCC[C@H]1C(=O)N1CCC[C@H]1C(=O)NCC(=O)N1CCC[C@H]1C(=O)N[C@@H](C)C(=O)NCC(=O)N1CCC[C@H]1C(=O)N[C@@H](CCCNC(=N)N)C(=O)NCC(=O)N[C@@H](C)C(=O)N[C@@H](CC(N)=O)C(=O)NCC(=O)N[C@@H](C)C(=O)N1CCC[C@H]1C(=O)O [compound 26] (H-GAPGPSGARGERGFPGERGVQGPPGPAGPRGANGAP-OH; N-terminus and C-terminus assumed) |
| 2092.23 | CC(C)C[C@H](NC(=O)CNC(=O)[C@@H](NC(=O)[C@@H](NC(=O)CN)C(C)C)C(C)C)C(=O)N1CCC[C@H]1C(=O)NCC(=O)N[C@@H](CCC(N)=O)C(=O)N[C@@H](CCCNC(=N)N)C(=O)NCC(=O)N[C@@H](CCC(=O)O)C(=O)N[C@@H](CCCNC(=N)N)C(=O)NCC(=O)N[C@@H](Cc1ccccc1)C(=O)N1CCC[C@H]1C(=O)NCC(=O)N[C@@H](CC(C)C)C(=O)N1CCC[C@H]1C(=O)NCC(=O)N1CCC[C@H]1C(=O)N[C@@H](CO)C(=O)NCC(=O)N[C@@H](CCC(=O)O)C(=O)N1CCC[C@H]1C(=O)NCC(=O)N[C@@H](CCCCN)C(=O)N[C@@H](CCC(N)=O)C(=O)NCC(=O)N1CCC[C@H]1C(=O)N[C@@H](CO)C(=O)NCC(=O)N[C@@H](C)C(=O)N[C@@H](CO)C(=O)NCC(=O)N[C@@H](CCC(=O)O)C(=O)N[C@@H](CCCNC(=N)N)C(=O)O [compound 22] (H-GVVGLPGQRGERGFPGLPGPSGEPGKQGPSGASGER-OH; N-terminus and C-terminus assumed) |
| 2290.34 | CSCC[C@H](NC(=O)[C@@H](NC(=O)CNC(=O)[C@H](C)NC(=O)[C@H](CCC(N)=O)NC(=O)CNC(=O)[C@H](CCCNC(=N)N)NC(=O)[C@H](C)NC(=O)CNC(=O)[C@@H]1CCCN1C(=O)[C@@H]1CCCN1C(=O)CNC(=O)[C@@H]1CCCN1C(=O)[C@@H]1CCCN1C(=O)CNC(=O)[C@@H]1CCCN1C(=O)[C@H](CCCNC(=N)N)NC(=O)CN)C(C)C)C(=O)NCC(=O)N[C@@H](Cc1ccccc1)C(=O)N1CCC[C@H]1C(=O)NCC(=O)N1CCC[C@H]1C(=O)N[C@@H](CCCCN)C(=O)NCC(=O)N[C@@H](C)C(=O)N[C@@H](C)C(=O)NCC(=O)N[C@@H](CCC(=O)O)C(=O)N1CCC[C@H]1C(=O)NCC(=O)N[C@@H](CCCCN)C(=O)N[C@@H](C)C(=O)NCC(=O)N[C@@H](CCC(=O)O)C(=O)N[C@@H](CCCNC(=N)N)C(=O)O [compound 10] (H-GRPGPPGPPGARGQAGVMGFPGPKGAAGEPGKAGER-OH; N-terminus and C-terminus assumed) |
| 2097.44 | CC(C)C[C@H](NC(=O)CNC(=O)[C@H](C)NC(=O)[C@@H](NC(=O)CNC(=O)[C@@H]1CCCN1C(=O)[C@H](CC(C)C)NC(=O)CNC(=O)[C@H](CCCNC(=N)N)NC(=O)[C@H](C)NC(=O)CNC(=O)[C@H](CCC(N)=O)NC(=O)[C@@H]1CCCN1C(=O)CNC(=O)[C@@H]1CCCN1C(=O)[C@@H]1CCCN1C(=O)CNC(=O)[C@H](CCCNC(=N)N)NC(=O)[C@H](CCC(=O)O)NC(=O)CNC(=O)[C@@H]1CCCN1C(=O)[C@H](CCCNC(=N)N)NC(=O)CNC(=O)[C@@H]1CCCN1C(=O)[C@H](CCCCN)NC(=O)CNC(=O)[C@H](C)NC(=O)[C@H](CCC(=O)O)NC(=O)CNC(=O)[C@H](CC(=O)O)NC(=O)[C@H](CC(=O)O)NC(=O)CNC(=O)[C@H](CC(N)=O)NC(=O)[C@H](CCCCN)NC(=O)CN)[C@@H](C)O)C(=O)N1CCC[C@H]1C(=O)O [compound 2] (H-GKNGDDGEAGKPGRPGERGPPGPQGARGLPGTAGLP-OH; N-terminus and C-terminus assumed) |
| 2098.04 | CC(C)C[C@H](NC(=O)[C@H](CC(=O)O)NC(=O)CNC(=O)[C@@H]1CCCN1C(=O)[C@@H](NC(=O)CNC(=O)[C@H](CCC(N)=O)NC(=O)[C@H](CCC(=O)O)NC(=O)CNC(=O)[C@@H]1CCCN1C(=O)[C@H](CCCCN)NC(=O)CNC(=O)[C@H](C)NC(=O)[C@H](CCC(=O)O)NC(=O)CNC(=O)[C@@H]1CCCN1C(=O)[C@@H]1CCCN1C(=O)CNC(=O)[C@H](C)NC(=O)[C@@H]1CCCN1C(=O)CNC(=O)[C@@H]1CCCN1C(=O)[C@H](CC(C)C)NC(=O)CN)C(C)C)C(=O)NCC(=O)N[C@@H](C)C(=O)N1CCC[C@H]1C(=O)NCC(=O)N1CCC[C@H]1C(=O)N[C@@H](CO)C(=O)NCC(=O)N[C@@H](C)C(=O)N[C@@H](CCCNC(=N)N)C(=O)NCC(=O)N[C@@H](CCC(=O)O)C(=O)N[C@@H](CCCNC(=N)N)C(=O)O [compound 13] (H-GLPGPAGPPGEAGKPGEQGVPGDLGAPGPSGARGER-OH; N-terminus and C-terminus assumed) |
| 2189.90 | CC(C)C[C@H](NC(=O)CNC(=O)[C@@H](NC(=O)[C@@H]1CCCN1C(=O)CNC(=O)[C@@H]1CCCN1C(=O)[C@H](CCC(=O)O)NC(=O)CNC(=O)[C@H](CCCNC(=N)N)NC(=O)[C@H](C)NC(=O)CNC(=O)[C@H](CCCNC(=N)N)NC(=O)[C@H](CCCCN)NC(=O)CNC(=O)[C@H](CCC(=O)O)NC(=O)[C@H](CCC(=O)O)NC(=O)CNC(=O)[C@H](C)NC(=O)[C@@H]1CCCN1C(=O)CNC(=O)[C@@H]1CCCN1C(=O)[C@@H]1CCCN1C(=O)CNC(=O)[C@H](CCC(N)=O)NC(=O)[C@@H](NC(=O)CNC(=O)[C@@H](NC(=O)[C@@H]1CCCN1C(=O)CN)C(C)C)C(C)C)[C@@H](C)O)C(=O)N1CCC[C@H]1C(=O)NCC(=O)N1CCC[C@H]1C(=O)N1CCC[C@H]1C(=O)NCC(=O)N[C@@H](CCC(=O)O)C(=O)N[C@@H](CCCNC(=N)N)C(=O)O [compound 7] (H-GPVGVQGPPGPAGEEGKRGARGEPGPTGLPGPPGER-OH; N-terminus and C-terminus assumed) |
| 2034.34 | CSCC[C@H](NC(=O)CNC(=O)[C@H](CCC(N)=O)NC(=O)[C@H](CC(C)C)NC(=O)CNC(=O)[C@@H]1CCCN1C(=O)[C@H](C)NC(=O)CNC(=O)[C@H](CCC(N)=O)NC(=O)[C@H](CO)NC(=O)CNC(=O)[C@@H]1CCCN1C(=O)[C@H](C)NC(=O)CNC(=O)[C@@H]1CCCN1C(=O)[C@H](C)NC(=O)CNC(=O)[C@H](C)NC(=O)[C@H](CC(=O)O)NC(=O)CNC(=O)[C@H](CCCCN)NC(=O)[C@H](C)NC(=O)CNC(=O)[C@H](CC(=O)O)NC(=O)[C@H](CC(N)=O)NC(=O)CNC(=O)[C@@H]1CCCN1C(=O)[C@H](C)NC(=O)CNC(=O)[C@H](CC(N)=O)NC(=O)[C@H](C)NC(=O)CN)C(=O)N1CCC[C@H]1C(=O)NCC(=O)N[C@@H](CCC(=O)O)C(=O)N[C@@H](CCCNC(=N)N)C(=O)O [compound 16] (H-GANGAPGNDGAKGDAGAPGAPGSQGAPGLQGMPGER-OH; N-terminus and C-terminus assumed) |
